Laboratory results taken from US20250214992A1, “HIGH-PURITY COMPOUND PRODUCTION METHOD AND PURIFICATION METHOD” (SANTEN PHARMACEUTICAL CO., LTD., priority 2022, published 2025).

Test: Ames test
Assay type: cell-based
Conditions: impurity contained in the prepared AFDX0250; found in the development stage of a pharmaceutical composition

Question: For `O=C1Nc2cccnc2N(C(=O)CCl)c2ccccc21` [Compound 1, 11-(2-chloroacetyl)-5,11-dihydro-6H-pyrido[2,3-b][1,4]benzodiazepin-6-one], which Ames test result is on record?
Answer: positive
